Among the data in ChEMBL document CHEMBL4043128, “Design, synthesis and biological evaluation of Lenalidomide derivatives as tumor angiogenesis inhibitor” (Bioorg Med Chem Lett, 2017) are Activity and IC50 values, retold here.

Values after ≈ are worked out from the molar mass of the structure shown. Active and inactive are the calls of the source. The rule behind the calls is not given here.

The term IC50 denotes the point on the concentration scale where inhibition reaches its midpoint. A low value points to higher potency.

The first assay concerns EC9706. Briefly: Antiproliferative activity against human EC9706 cells after 48 hrs by CCK-8 assay. The format is functional, cell-based.
Details: not given
(In general: Tetrazolium dyes change colour on reduction, which living cells bring about.)
`Cc1ccc(CNc2cccc3c2CN(C2CCC(=O)NC2=O)C3=O)cc1` (stereo unspecified): the Activity result is “Dose-dependent effect”.
In the case of `Nc1cccc2c1CN(C1CCC(=O)NC1=O)C2=O` (stereo unspecified) [LENALIDOMIDE], the Activity result is “Dose-dependent effect”.
Same read-out and setting: the result for `Cc1ccc(S(=O)(=O)Nc2cccc3c2CN(C2CCC(=O)NC2=O)C3=O)cc1` (stereo unspecified) reads “Dose-dependent effect”; that for `Cc1ccc(C(=O)Nc2cccc3c2CN(C2CCC(=O)NC2=O)C3=O)cc1` (stereo unspecified), “Dose-dependent effect”.

The same assay, now with this note: EC9706, 48 h.
`Cc1ccc(CNc2cccc3c2CN(C2CCC(=O)NC2=O)C3=O)cc1` (stereo unspecified): the 50% inhibitory concentration (IC50) was determined as 310 µg/mL (≈ 852 µM).
Molecule `Nc1cccc2c1CN(C1CCC(=O)NC1=O)C2=O` (stereo unspecified) [LENALIDOMIDE] returned an IC50 of 340 µg/mL (≈ 1310 µM).
Regarding `Cc1ccc(S(=O)(=O)Nc2cccc3c2CN(C2CCC(=O)NC2=O)C3=O)cc1` (stereo unspecified), the IC50 amounted to 225 µg/mL (≈ 545 µM).
In the case of `Cc1ccc(C(=O)Nc2cccc3c2CN(C2CCC(=O)NC2=O)C3=O)cc1` (stereo unspecified), half-maximal inhibition (IC50) was put at 262 µg/mL (≈ 694 µM).

A further assay relates to EC9706. The experiment in a line: Antiproliferative activity against human EC9706 cells at 150 ug/mL after 48 hrs by CCK-8 assay.
Details: not given
The format is functional, cell-based.
Consider `Cc1ccc(CNc2cccc3c2CN(C2CCC(=O)NC2=O)C3=O)cc1` (stereo unspecified), for which the result was Active.
Still for that read-out and setting: the entry for `Nc1cccc2c1CN(C1CCC(=O)NC1=O)C2=O` (stereo unspecified) [LENALIDOMIDE] is “Active”; for `Cc1ccc(S(=O)(=O)Nc2cccc3c2CN(C2CCC(=O)NC2=O)C3=O)cc1` (stereo unspecified) it is “Active”.
The same measure, in the same setting: the entry for `Cc1ccc(C(=O)Nc2cccc3c2CN(C2CCC(=O)NC2=O)C3=O)cc1` (stereo unspecified) is “Active”.

The subject of the next assay is EC9706. The experiment in a line: Antiproliferative activity against human EC9706 cells at >= 600 ug/mL after 48 hrs by CCK-8 assay relative to control. The format is functional.
Details: not given
Regarding `Cc1ccc(CNc2cccc3c2CN(C2CCC(=O)NC2=O)C3=O)cc1` (stereo unspecified), the Activity amounted to 100%.
In turn, `Nc1cccc2c1CN(C1CCC(=O)NC1=O)C2=O` (stereo unspecified) [LENALIDOMIDE] came in with an Activity of 100%.
Same read-out and setting: the result for `Cc1ccc(S(=O)(=O)Nc2cccc3c2CN(C2CCC(=O)NC2=O)C3=O)cc1` (stereo unspecified) reads 100%; that for `Cc1ccc(C(=O)Nc2cccc3c2CN(C2CCC(=O)NC2=O)C3=O)cc1` (stereo unspecified), 100%.
